Patent US20260217700A1, “KINESIN KIF18A INHIBITOR AND USE THEREOF” (SHANGHAI APEIRON THERAPEUTICS COMPANY LIMITED, priority 2022, published 2026)
Like-named read-outs stand apart in the source and are kept apart here.

What was measured:
[1] = target: T1, Human KIF18A (amino acid sequence 1-417) (Homo sapiens, UniProt Q8NI77); test: Enzymatic activity test (ADP-Glo, microtubule-stimulated ATPase); type: biochemical; settings: KIF18A 2.5 nM, ATP 25 μM, microtubules 60 μg/mL, 120 min at ambient temperature, ADP-Glo chemiluminescence; read-out: Enzyme Activity
T1 construct: purchased Viva Biotech (Shanghai) Ltd
T1 sequence (Q8NI77 1-417): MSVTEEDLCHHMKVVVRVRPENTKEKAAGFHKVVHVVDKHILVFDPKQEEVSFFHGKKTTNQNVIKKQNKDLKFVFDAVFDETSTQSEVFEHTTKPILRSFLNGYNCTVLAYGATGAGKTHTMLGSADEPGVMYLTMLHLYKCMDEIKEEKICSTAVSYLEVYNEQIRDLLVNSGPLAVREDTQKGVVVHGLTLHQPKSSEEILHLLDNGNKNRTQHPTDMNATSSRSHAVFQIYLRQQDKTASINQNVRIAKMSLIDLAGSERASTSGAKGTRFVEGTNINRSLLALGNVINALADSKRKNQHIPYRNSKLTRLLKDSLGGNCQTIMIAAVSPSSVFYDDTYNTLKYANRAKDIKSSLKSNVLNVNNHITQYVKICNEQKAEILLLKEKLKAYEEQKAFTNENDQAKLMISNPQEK
Protocol: Materials: Human KIF18A (amino acid sequence 1-417) was purchased from Viva Biotech (Shanghai) Ltd.; the ADP-Glo™ protein kinase kit was acquired from Promega, USA; tubulin was sourced from Cytoskeleton, USA; and the 384-well assay plate and Envision multifunctional microplate reader were obtained from PerkinElmer, USA.
Enzymatic Activity Test: Dissolve the compound powder in DMSO to prepare a stock solution of 10 mM. Then perform gradient dilution for the compounds in the microplate to achieve a final concentration of […]. Then, add 2.5 μL each of tubulin, compound, ATP, and KIF18A protein to the microplate in sequence for reaction at ambient temperature for 120 min. The final concentrations in the enzyme reaction are 60 μg/mL for microtubules, 25 μM for ATP, and 2.5 nM for KIF18A protein. After the enzyme reaction, add 10 μL of ADP-GLO reaction reagent to each well and incubate at ambient temperature for 30 min. After that, add […] to each well and incubate at ambient temperature for 30 min in the dark. Finally, perform chemiluminescence detection using the PerkinElmer Envision.

OVCAR3 cells = test: Cell proliferation activity test (CyQUANT Direct); type: cell-based; settings: read-out: OVCAR-3 Cell Viability_IC50_nM
Protocol: Materials and Cells: OVCAR3 cells were purchased from Nanjing Cobioer Biosciences Co., Ltd. RPMI-1640 medium, fetal bovine serum, and the CyQUANT Direct Cell Proliferation Assay kit were purchased from Thermo Fisher Scientific, USA; 96-well cell culture plates were sourced from Corning, USA.
Cell Culture: Culture OVCAR3 cells with RPMI-1640 medium containing 10% fetal bovine serum and incubate them in a 5% CO2 incubator at 37° C. Only cells in the logarithmic growth phase can be used for the test.
Inoculate OVCAR3 cells into a 96-well cell culture plate at 90 μL per well and incubate overnight in a 5% CO2 incubator at 37° C. Dissolve the compound powder in DMSO to prepare a stock solution of 10 mM. Then perform gradient dilution for the compounds in the microplate to achieve a final concentration of 0-10 μM. Add 10 μL of cell culture medium containing compounds to each well to make the final DMSO content 0.2%. Incubate the cell plates in a 5% CO2 incubator at 37° C. for 3 days. Add 100 μL of CyQUANT detection reagent to each well, react at 37° C. for 60 min, and perform fluorescence detection using the PerkinElmer Envision.

HT29 cells = test: CyQuant cell proliferation activity test; type: cell-based; settings: read-out: HT-29 Cell Viability_IC50_nM
Protocol: Materials and Cells: HT29 cells were purchased from Nanjing Cobioer Biosciences Co., Ltd.; RPMI-1640 medium, fetal bovine serum, Trypsin-EDTA (0.25%), 96-well plates, and CyQuant reagents were purchased from ThermoFisher (USA); DMSO was purchased from SIGMA (USA).
Cell Culture: Culture HT29 cells with RPMI-1640 containing 10% fetal bovine serum under the condition of 37° C. and 5% CO2. Only cells in the logarithmic growth phase can be used for the test.
Cell Proliferation Activity Test: Use the CyQuant reagent to detect the proliferation inhibitory activity of compounds on HT29 cells. The cell density was adjusted, and 100 μL per well was inoculated into a 96-well plate (HT29 at 2000 cells per well), then incubated overnight at 37° C. and 5% CO2. Add compounds of various target concentrations (initial concentration of 3000 nM, 3-fold dilution, 9 concentration gradients), and make the DMSO content 0.2%. The cell plate was incubated at 37° C. in 5% CO2 for 3 days. Incubate with CyQuant reagent for 1 h, read the plate by Envision, and calculate IC50 using XLFIT.

[2] = Homo sapiens, OVCAR-3, 72 h, OVCAR3 cells, 3 days incubation, CyQUANT fluorescence detection, DMSO 0.2%
[3] = Homo sapiens, HT-29, 72 h, HT29 at 2000 cells per well, 3 days incubation, CyQuant, initial concentration 3000 nM, DMSO 0.2%

| IC50 [1] | IC50 (OVCAR3 cells; [2]) | IC50 (HT29 cells; [3]) | SMILES | IC50 (OVCAR3 cells) | IC50 (HT29 cells) |
| --- | --- | --- | --- | --- | --- |
| 176 nM | 26 nM | 37 nM | Cc1cc(NC(=O)c2c(N3CCC4(CC3)CC4)cc(NS(=O)(=O)CCO)c3c2CCC3)nc(N2CCC(F)(F)CC2)n1 [Example 9, N-(2-(4,4-difluoropiperidin-1-yl)-6-methylpyrimidin-4-yl)-7-((2-hydroxyethyl)sulfonamido)-5-(6-azaspiro[2.5]oct-6-yl)-2,3-dihydro-1H-indene-4-carboxamide] |  |  |
| 237 nM | 67 nM | 74 nM | O=C(Nc1cc2cccnc2c(N2CCC(F)(F)CC2)c1F)c1c(N2CCC3(CC2)CC3)cc(NS(=O)(=O)CCO)c2ccccc12 [Example 6, 2-{6-Azaspiro[2.5]octan-6-yl}-N-[8-(4,4-difluoropiperidin-1-yl)-7-fluoroquinolin-6-yl]-4-(2-hydroxyethanesulfonamido)naphthalene-1-carboxamide] |  |  |
| 280 nM | 488 nM | > 1000 nM | Cc1cc(NC(=O)c2c(N3CCC4(CC3)CC4)cc(NS(=O)(=O)CCO)c3cccnc23)nc(N2CCC(F)(F)CC2)n1 [Example 8, N-(2-(4,4-difluoropiperidin-1-yl)-6-methylpyrimidin-4-yl)-5-((2-hydroxyethyl)sulfonamido)-7-(6-azaspiro[2.5]octan-6-yl)quinoline-8-carboxamide] |  |  |
| 635 nM | 98 nM | 123 nM | COc1cc(NC(=O)c2c(N3CCC4(CC3)CC4)cc(NS(=O)(=O)CCO)c3ccccc23)nc(N2CCC(F)(F)CC2)n1 [Example 7, 2-{6-Azaspiro[2.5]octan-6-yl}-N-[2-(4,4-difluoropiperidin-1-yl)-6-methoxypyrimidin-4-yl]-4-(2-hydroxyethanesulfonamido)naphthalene-1-carboxamide] |  |  |
| 180 nM | 35 nM | 44 nM | CC(CO)S(=O)(=O)Nc1cc(N2CCC3(CC2)CC3)c(C(=O)Nc2cc3sc(N)nc3c(N3CCC(F)(F)CC3)c2F)c2ccccc12 (stereo not drawn) [Example 10, N-[2-amino-4-(4,4-difluoropiperidin-1-yl)-5-fluoro-1,3-benzothiazol-6-yl]-2-{6-azaspiro[2.5]octan-6-yl}-4-(1-hydroxypropane-2-sulfonamido)naphthalene-1-carboxamide] |  |  |
| 170 nM | 20 nM | 29 nM | Cc1cc(NC(=O)c2c(N3CCC4(CC3)CC4)cc(NS(=O)(=O)C(C)(C)CO)c3c2CCC3)nc(N2CCC(F)(F)CC2)n1 [Example 11, N-(2-(4,4-difluoropiperidin-1-yl)-6-methylpyrimidin-4-yl)-7-((2-hydroxy-1,1-dimethylethyl)sulfonamide)-5-(6-azaspiro[2.5]oct-6-yl)-2,3-dihydro-1H-indene-4-carboxamide] |  |  |

The remaining lines, values behind:

| SMILES | IC50 [1] | IC50 (OVCAR3 cells; [2]) | IC50 (HT29 cells; [3]) | IC50 (OVCAR3 cells) | IC50 (HT29 cells) |
| --- | --- | --- | --- | --- | --- |
| Cc1cc(NC(=O)c2c(N3CCC4(CC3)CC4)cc(NS(=O)(=O)CCO)c3ncccc23)nc(N2CCC(F)(F)CC2)n1 [Example 5, N-(2-(4,4-difluoropiperidin-1-yl)-6-methylpyrimidin-4-yl)-8-(2-hydroxyethanesulfonamido)-6-(6-azaspiro[2.5]octan-6-yl)quinoline-5-carboxamide] | 134 nM | 36 nM | 65 nM |  |  |
| Cc1cc(NC(=O)c2c(N3CCC4(CC3)CC4)cc(NS(=O)(=O)CCO)n3ccnc23)nc(N2CCC(F)(F)CC2)n1 [Example 1, N-(2-(4,4-difluoropiperidin-1-yl)-6-methylpyrimidin-4-yl)-5-(2-hydroxyethylsulfonamido)-7-(6-azaspiro[2.5]octan-6-yl)imidazo[1,2-a]pyridine-8-carboxamide] | 112 nM | 442 nM | 877 nM |  |  |
| Cc1cc(NC(=O)c2c(N3CCC4(CC3)CC4)cc(NS(=O)(=O)CCO)c3c2OCC3)nc(N2CCC(F)(F)CC2)n1 [Example 3, N-(2-(4,4-difluoropiperidin-1-yl)-6-methylpyrimidin-4-yl)-4-(2-hydroxyethylsulfonamido)-6-(6-azaspiro[2.5]octan-6-yl)-2,3-dihydrobenzofuran-7-carboxamide] | 27 nM | 28 nM | 45 nM |  |  |
| Cc1cc(NC(=O)c2c(N3CCC4(CC3)CC4)cc(NS(=O)(=O)CCO)c3ccoc23)nc(N2CCC(F)(F)CC2)n1 [Example 2, N-(2-(4,4-difluoropiperidin-1-yl)-6-methylpyrimidin-4-yl)-4-(2-hydroxyethylsulfonamido)-6-(6-azaspiro[2.5]octan-6-yl)-benzofuran-7-carboxamide] | 29 nM | 25 nM | 50 nM |  |  |
| Cc1cc(NC(=O)c2c(N3CCC4(CC3)CC4)cc(NS(=O)(=O)CCO)c3ccccc23)nc(N2CCC(F)(F)CC2)n1 [Example 4, N-(2-(4,4-difluoropiperidin-1-yl)-6-methylpyrimidin-4-yl)-4-(2-_hydroxyethylsulfonamido)-2-(6-azaspiro[2.5]octan-6-yl)-1-naphthamide] | 173 nM |  |  | 37 nM | 52 nM |
